Legend:
[1] = cited from earlier work
[2] = target: T1, serotonin 5-HT2A receptor (Mus musculus, UniProt P35363); test: head-twitch response (HTR); assay type: in vivo, C57Bl/6J mice; conditions: for HTR compared to DOI (positive control, 1 mg/kg) / HTR compared to vehicle: HTRs counted for 15 minutes, adult male mice; for model fit of data (GraphPad Prism 9): FIG. 16 legend
T1 construct: tissue Jackson Laboratory; host or cells: living C57Bl/6J mice (whole animal, behavioural read-out)
Procedure: The HTR assay was performed in adult, male C57Bl/6J mice, procured from the Jackson Laboratory (Bar Harbor, Maine), as previously described (Canal, C. E., and Morgan, D., 2012, Head-twitch response in rodents induced by the hallucinogen 2,5-dimethoxy-4-iodoamphetamine: a comprehensive history, a re-evaluation of mechanisms, and its utility as a model, Drug Test Anal 4, 556-576; Saraf, T. S., Felsing, D. E., Armstrong, J. L., Booth, R. G., and Canal, C. E., 2021, Evaluation of lorcaserin as an anticonvulsant in juvenile Fmr1 knockout mice, Epilepsy Res 175, 106677). Mice were housed in standard laboratory cages with ad libitum access to food and water, and were acclimated to the vivarium for at least one week prior to testing in a procedure room. On the day of testing, mice were acclimated to the procedure room in their home cages for ≥60 mi before administration of test compounds. Mice were injected subcutaneously, placed immediately thereafter in a clear, polycarbonate box (46×20×20 cm), and HTRs were counted for 15 consecutive minutes, using hand-held tally counters, by two trained observers who were blind to treatment.

[3] = target: T2, human serotonin 5-HT2A receptor (Homo sapiens, UniProt P28223); test: radioligand competition binding, [3H]Ketanserin; conditions: HEK293 membranes, [3H]Ketanserin ~1.6 nM
T2 construct: host or cells: HEK293 (ATCC CRL-1573), transient transfection, membrane preparation
Procedure: Radioligand competition binding was performed as previously described (Saraf, T. S., Felsing, D. E., Armstrong, J. L., Booth, R. G., and Canal, C. E., 2021, Evaluation of lorcaserin as an anticonvulsant in juvenile Fmr1 knockout mice, Epilepsy Res 175, 106677), with minor modifications. Plasmids encoding human serotonin 5-HT2A receptor cDNA were procured from the cDNA Resource Center. Human embryonic kidney cells (HEK293, ATCC CRL-1573) were grown in a cell incubator in 100 mm dishes with antibiotic-free Dulbecco's modified Eagle's medium containing 10% fetal bovine serum. Cells were transfected at ˜85% confluency with […] cDNA using TransIT-2020 reagent (Mirus Bio, Madison, Wisconsin). After approximately 48 hours, cell membrane was collected via centrifugation. For all experiments, serotonin (5-HT) hydrochloride was used as a positive control, and mianserin hydrochloride (10 μM) was used to define non-specific binding. Each cell membrane homogenate expressing 5-HT2A receptors was incubated in 96-well plates with [^3H]Ketanserin (PerkinElmer, Waltham, Massachusetts), ˜1.6 nM (its Kd at human 5-HT2A receptors), in the absence or presence of test compounds in a buffer. Following equilibration, each sample was filtered rapidly under vacuum through fiberglass filters presoaked in a buffer and rinsed several times with an ice-cold buffer using a cell harvester. Filters were soaked with scintillation fluid, and counts per minute were detected using photodetectors. IC50 values were computed using nonlinear, least squares regression analyses and then converted to Ki values using the Cheng-Prusoff equation (GraphPad Prism 9.0, San Diego, California).

[4] = in vitro liver metabolism (metabolic stability); assay type: in vitro ADME; conditions: rat liver microsomes, NADPH regenerating system, 0 to 60 min
Procedure: In Vitro Liver Metabolism and Kinetic Deuterium Isotope Effects Compounds (10 μl of 2 μM solution) are incubated in 200 μl of medium that contains […] rat liver microsomes, NADPH regenerating system (1 mM NADP, 1 unit/ml of isocitrate dehydrogenase, 5 mM isocitric acid, 5 mM magnesium chloride), and 25 mM of phosphate buffer (pH 7.4). The reaction is terminated at different time points (0 to 60 min) by the addition of 300 μl of acetonitrile. For the analyses of products, the precipitated salts and proteins are spun out on a centrifuge, the residual solution diluted with 300 μl of water and injected into the LC/MS (Agilent 1200 system interfaced with an ABS Sciex 4000 QTRAP LC/MS/MS Mass Spectrometer). The metabolic stability may be estimated by evaluating the rate of disappearance of the main parent peak.

T2 sequence (P28223 whole entry): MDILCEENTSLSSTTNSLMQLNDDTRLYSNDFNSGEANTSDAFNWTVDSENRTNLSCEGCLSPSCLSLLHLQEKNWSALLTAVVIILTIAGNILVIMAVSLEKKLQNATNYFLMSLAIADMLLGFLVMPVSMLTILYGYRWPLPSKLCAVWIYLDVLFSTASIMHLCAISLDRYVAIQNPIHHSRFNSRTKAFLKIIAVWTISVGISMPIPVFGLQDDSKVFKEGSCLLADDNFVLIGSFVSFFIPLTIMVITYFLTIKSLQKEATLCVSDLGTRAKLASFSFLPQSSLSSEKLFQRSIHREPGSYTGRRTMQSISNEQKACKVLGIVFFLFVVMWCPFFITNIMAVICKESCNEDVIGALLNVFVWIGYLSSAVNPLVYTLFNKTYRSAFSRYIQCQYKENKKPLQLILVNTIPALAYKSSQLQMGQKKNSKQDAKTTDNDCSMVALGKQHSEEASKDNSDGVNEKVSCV
T1 sequence (P35363 whole entry): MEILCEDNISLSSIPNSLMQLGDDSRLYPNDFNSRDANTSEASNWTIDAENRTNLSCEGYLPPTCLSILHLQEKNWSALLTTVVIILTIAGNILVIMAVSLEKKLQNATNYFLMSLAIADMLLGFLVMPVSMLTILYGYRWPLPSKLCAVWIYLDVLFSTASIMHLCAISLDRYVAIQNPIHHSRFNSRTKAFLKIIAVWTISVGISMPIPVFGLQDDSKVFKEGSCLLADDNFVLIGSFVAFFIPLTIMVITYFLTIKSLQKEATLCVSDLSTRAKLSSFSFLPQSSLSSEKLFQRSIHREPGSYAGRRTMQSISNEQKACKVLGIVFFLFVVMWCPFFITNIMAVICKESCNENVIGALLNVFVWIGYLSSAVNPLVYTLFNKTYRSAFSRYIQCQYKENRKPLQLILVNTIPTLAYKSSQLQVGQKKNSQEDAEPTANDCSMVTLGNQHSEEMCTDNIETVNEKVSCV

SMILES	activity after oral administration [1]	HTR compared to DOI (positive control, 1 mg/kg) ([2]; 3 mg/kg, subcutaneous)	HTR compared to vehicle ([2]; 3 mg/kg, subcutaneous)	model fit of data (GraphPad Prism 9) [2]	activity at serotonin 5-HT2A receptors (FIG. 17) [3]	difference in affinity between deuterated and non-deuterated compounds [3]	effect of deuteration of the 2,5-methoxy groups on HTR (versus Compound I-1) ([2]; 3 mg/kg, subcutaneous, 15 minutes)	half life longer than Reference Compound 2 (2C—B) [4] [%]
COc1cc(OC)c(OC)cc1CCN [2C—O]	inactive	–	–	–	–	–	–	–
COc1cc(SC(F)(F)F)c(OC)cc1CCN [Compound I-1, 2-(2,5-dimethoxy-4-((trifluoromethyl)thio)phenyl)ethan-1-amine]	–	not statistically different from DOI	statistically different from vehicle	fit best to a two-site model	pronounced agonists	no significant differences in affinity	–	–
[2H]C([2H])([2H])Oc1cc(SC(F)(F)F)c(OC([2H])([2H])[2H])cc1CCN [Compound II-10, 2-(2,5-bis(methoxy-d3)-4-((trifluoromethyl)thio)phenyl)ethan-1-amine]	–	not statistically different from DOI	statistically different from vehicle	fit best to a two-site model	pronounced agonists	no significant differences in affinity	increased the HTR response	–
[2H]C([2H])([2H])Oc1cc(C([2H])([2H])C([2H])([2H])N)c(OC([2H])([2H])[2H])cc1Br [Compound II-14, 2-(4-bromo-2,5-bis(methoxy-d3)phenyl)ethan-1,1,2,2-d4-1-amine]	–	–	–	–	–	–	–	50

Reference: patent publication US12122741B2, “Therapeutic phenethylamine compositions and methods of use” (CYBIN IRL LIMITED, priority 2020, dated 2024)
